# Measured values: paper PMC4894499 (Journal of pharmaceutical sciences, 2016)
# How the values were obtained:
# [1] = system: human SCH; settings: cited from earlier work
# [2] = system: human SCH; settings: cited from earlier work; remark: listed apart in the source
# [3] = system: human SCH; settings: fold greater; cited from earlier work
# [4] = system: human SCH; settings: cited from earlier work; for Effect on total (cell + bile) and cellular accumulation of TCA: concentration-dependent
# [5] = Bile acid toxicity: intracellular ATP; assay type: cell-based, rat; settings: rat, sandwich-cultured hepatocytes (SCH)
# [6] = system: rat SCH; test: Bile acid toxicity: intracellular ATP; assay type: cell-based; settings: rat SCH, 0 – 0.2 mM LCA, 6, 12, 24 hr
# [7] = Bile acid toxicity: intracellular ATP; assay type: cell-based, human; settings: human, sandwich-cultured hepatocytes (SCH)
# [8] = system: human SCH; test: Bile acid toxicity: intracellular ATP; assay type: cell-based; settings: human SCH, 0 – 0.2 mM LCA, 6, 12, 24 hr
# [9] = Bile acid toxicity: LDH release in rat SCH; assay type: cell-based; settings: rat, sandwich-cultured hepatocytes (SCH)
# [10] = system: rat SCH; test: Bile acid toxicity: LDH release in rat SCH; assay type: cell-based; settings: rat SCH, 0 – 0.2 mM LCA, 6, 12, 24 hr
# [11] = system: human SCH; test: Bile acid toxicity: LDH release in human SCH; assay type: cell-based; settings: human SCH, 0 – 0.2 mM LCA, 6, 12, 24 hr
# [12] = system: human SCH; test: Intracellular bile acid concentrations by LC-MS/MS in human SCH; assay type: in vitro ADME; settings: LCA-treated SCH
# [13] = Bile acid toxicity: LDH release in human SCH; assay type: cell-based; settings: human, sandwich-cultured hepatocytes (SCH)
# [14] = system: CYP3A4 and UGT1A1; settings: human SCH; cited from earlier work
# [15] = system: rat SCH
# [16] = system: rat SCH; settings: cited from earlier work
# [17] = system: rat SCH; settings: cited from earlier work; remark: listed apart in the source
# [18] = system: human SCH; settings: cited from earlier work; remark: listed apart in the source
# [19] = system: P-gp; settings: human SCH, treatment for 3 days; cited from earlier work
smiles,measurement,setting,value
COC(=O)N[C@H](C(=O)N[C@@H](Cc1ccccc1)[C@@H](O)CN(Cc1ccc(-c2ccccn2)cc1)NC(=O)[C@@H](NC(=O)OC)C(C)(C)C)C(C)(C)C [atazanavir],Effect on CGamF accumulation,[1],potently inhibited
COC(=O)C1=C(C)NC(C)=C(C(=O)OC(C)C)C1c1cccc2nonc12 (stereo not shown) [isradipine],Effect on canalicular efflux of TCA,[2],minimal effects
COc1ccccc1Oc1c(NS(=O)(=O)c2ccc(C(C)(C)C)cc2)nc(-c2ncccn2)nc1OCCO [bosentan],Hepatocyte concentration relative to medium concentration,[3],20 fold
same,Effect on BEI and apparent biliary clearance of TCA (TCA biliary excretion),[4],significantly decreased
same,Effect on sodium-dependent TCA uptake,[4],significantly inhibited
same,Effect on total (cell + bile) and cellular accumulation of TCA,[4],significantly decreased
CC#C[C@]1(O)CC[C@H]2[C@@H]3CCC4=CC(=O)CCC4=C3[C@@H](c3ccc(N(C)C)cc3)C[C@@]21C [mifepristone],Effect on canalicular efflux of TCA,[2],minimal effects
Cc1cc2c(cc1CC(=O)c1sccc1S(=O)(=O)Nc1onc(C)c1Cl)OCO2 [sitaxsentan],Hepatocyte concentration relative to medium concentration,[3],40 fold
same,Effect on sodium-dependent TCA uptake,[4],significantly inhibited
"C[C@H](CCC(=O)O)[C@H]1CC[C@H]2[C@@H]3CC[C@@H]4C[C@H](O)CC[C@]4(C)[C@H]3CC[C@]12C [LCA, lithocholic acid]",CC50 at 24 h,[5],147 µM
same,Effect on cellular ATP,[6],concentration-dependent decrease
same,CC50 at 24 h,[7],155 µM
same,Effect on cellular ATP,[8],delayed decrease
same,CC50 at 24 h,[9],146 µM
same,LDH leakage,[10],increase
same,LDH leakage,[11],minimal
same,Intracellular concentration in human SCH compared with rat SCH,[12],comparable
CC(C)CN(C[C@@H](O)[C@H](Cc1ccccc1)NC(=O)O[C@H]1CO[C@H]2OCC[C@H]21)S(=O)(=O)c1ccc(N)cc1 [darunavir],Effect on CGamF accumulation,[1],potently inhibited
COc1ccc(Cl)cc1C(=O)NCCc1ccc(S(=O)(=O)NC(=O)NC2CCCCC2)cc1 [glyburide],Effect on canalicular efflux of TCA,[2],minimal effects
COC(c1ccccc1)(c1ccccc1)[C@H](Oc1nc(C)cc(C)n1)C(=O)O [ambrisentan],Hepatocyte concentration relative to medium concentration,[3],2 fold
same,Effect on BEI and apparent biliary clearance of TCA (TCA biliary excretion),[4],minimal inhibitory effects
"C[C@H](CCC(=O)O)[C@H]1CC[C@H]2[C@@H]3[C@H](O)C[C@@H]4C[C@H](O)CC[C@]4(C)[C@H]3CC[C@]12C [CDCA, chenodeoxycholic acid]",CC50 at 24 h,[5],351 µM
same,CC50 at 24 h,[7],568 µM
same,CC50 at 24 h,[9],243 µM
same,CC50 at 24 h,[13],972 µM
CO[C@H]1/C=C/O[C@@]2(C)Oc3c(C)c(O)c4c(O)c(cc(O)c4c3C2=O)NC(=O)/C(C)=C\C=C\[C@H](C)[C@H](O)[C@@H](C)[C@@H](O)[C@@H](C)[C@H](OC(C)=O)[C@@H]1C [rifamycin SV],Effect on intracellular accumulation of buprenorphine and midazolam,[14],increased
"C[C@H](CCC(=O)NCCS(=O)(=O)O)[C@H]1CC[C@H]2[C@@H]3[C@H](O)C[C@@H]4C[C@H](O)CC[C@]4(C)[C@H]3CC[C@]12C [TCDCA, taurochenodeoxycholic acid]","Cellular concentration relative to CDCA, fold lower",[15],~ 100 fold
CCCC1O[C@@H]2C[C@H]3[C@@H]4CCC5=CC(=O)C=C[C@]5(C)[C@H]4[C@@H](O)C[C@]3(C)[C@]2(C(=O)CO)O1 (stereo partly shown) [budesonide],Effect on canalicular efflux of TCA,[2],minimal effects
"Cc1c(C)c2c(c(C)c1O)CCC(C)(COc1ccc(CC3SC(=O)NC3=O)cc1)O2 (stereo not shown) [TGZ, troglitazone]",Effect on canalicular efflux of TCA,[2],significantly reduced
same,Effect on CDCA accumulation in hepatocytes,[16],increased
same,Effect on cellular accumulation of TCA,[16],decreased
"C[C@H](CCC(=O)NCC(=O)O)[C@H]1CC[C@H]2[C@@H]3CC[C@@H]4C[C@H](O)CC[C@]4(C)[C@H]3CC[C@]12C [GLCA, glycolithocholic acid]",Intracellular concentration in human SCH compared with rat SCH,[12],comparable
Cc1cccc(C)c1OCC(=O)N[C@@H](Cc1ccccc1)[C@@H](O)C[C@H](Cc1ccccc1)NC(=O)[C@H](C(C)C)N1CCCNC1=O [lopinavir],"Effect on TCA biliary excretion (BEI and CLb, app, in vitro)",[17],significantly reduced
same,Effect on intracellular accumulation of TCA,[17],increased
CN(CCOc1ccc(CC2SC(=O)NC2=O)cc1)c1ccccn1 (stereo not shown) [rosiglitazone],Effect on canalicular efflux of TCA,[2],significantly reduced
"C[C@H](CCC(=O)NCCS(=O)(=O)O)[C@H]1CC[C@H]2[C@@H]3CC[C@@H]4C[C@H](O)CC[C@]4(C)[C@H]3CC[C@]12C [TLCA, taurolithocholic acid]","Intracellular concentration in human SCH relative to rat SCH, fold lower",[12],~ 100 fold
CC(C)c1nc(CN(C)C(=O)N[C@H](C(=O)N[C@@H](Cc2ccccc2)C[C@H](O)[C@H](Cc2ccccc2)NC(=O)OCc2cncs2)C(C)C)cs1 [ritonavir],"Effect on TCA biliary excretion (BEI and CLb, app, in vitro)",[17],significantly reduced
same,Effect on intracellular accumulation of TCA,[17],increased
same,Effect on canalicular efflux of TCA,[2],significantly reduced
same,Effect on 99mTc–mebrofenin uptake,[18],decreased
same,Effect on BEI of 99mTc–mebrofenin,[18],without changing
CCCNS(=O)(=O)Nc1ncnc(OCCOc2ncc(Br)cn2)c1-c1ccc(Br)cc1 [macitentan],Hepatocyte concentration relative to medium concentration,[3],about 100 fold
same,Effect on BEI and apparent biliary clearance of TCA (TCA biliary excretion),[4],significantly decreased
same,Effect on total (cell + bile) and cellular accumulation of TCA,[4],significantly decreased
CC(C)(C)NC(=O)[C@@H]1CN(Cc2cccnc2)CCN1C[C@@H](O)C[C@@H](Cc1ccccc1)C(=O)N[C@H]1c2ccccc2C[C@H]1O [indivanir],Effect on CGamF accumulation,[1],potently inhibited
CO[C@H]1/C=C/O[C@@]2(C)Oc3c(C)c(O)c4c(O)c(c(/C=N/N5CCN(C)CC5)c(O)c4c3C2=O)NC(=O)/C(C)=C\C=C\[C@H](C)[C@H](O)[C@@H](C)[C@@H](O)[C@@H](C)[C@H](OC(C)=O)[C@@H]1C [rifampicin],Effect on BEI of digoxin,[19],increase
